Like-named read-outs stand apart in the source and are kept apart here.
What was measured:
PANC-1 = assay: Inhibition of cells growth by colorimetric (SRB) assay, PANC-1; conditions: for GI50: read-out: GI50 PANC-1
Summary of the method: (§1)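 Human tumour cells seeded at 5×10^3/well in RPMI 1640 10% FBS, attached 18 h, then exposed 48 h to samples at 10 to 10^−8 μg/ml in DMSO/EtOH/PBS (0.5:0.5:99). Growth read by SRB staining after TCA fixation, OD 490 nm, triplicate wells; GI, TGI and LC derived.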

SK-BR-3 = assay: Inhibition of cells growth by colorimetric (SRB) assay, SK-BR-3; conditions: SRB assay, 48 hours exposure; for GI50: read-out: GI50 SK-BR-3; for CC50: read-out: LC50 SK-BR-3
Summary of the method: as §1

SK-OV-3 = assay: Inhibition of cells growth by colorimetric (SRB) assay, SK-OV-3
Summary of the method: as §1

SK-MEL-28 = assay: Inhibition of cells growth by colorimetric (SRB) assay, SK-MEL-28
Summary of the method: as §1

LoVo = assay: Inhibition of cells growth by colorimetric (SRB) assay, LoVo; conditions: for CC50: read-out: LC50 LOVO
Summary of the method: as §1

A-549 = assay: Inhibition of cells growth by colorimetric (SRB) assay, A-549; conditions: for GI50: read-out: GI50 A-549
Summary of the method: as §1

IGROV-1 = assay: Inhibition of cells growth by colorimetric (SRB) assay, IGROV-1; conditions: for CC50: read-out: LC50 IGROV
Summary of the method: as §1

LoVo-Dox = assay: Inhibition of cells growth by colorimetric (SRB) assay, LoVo-Dox
Summary of the method: as §1

DU-145 = assay: Inhibition of cells growth by colorimetric (SRB) assay, DU-145; conditions: for GI50: read-out: GI50 DU-145
Summary of the method: as §1

HT-29 = assay: Inhibition of cells growth by colorimetric (SRB) assay, HT-29
Summary of the method: as §1

LNCaP = assay: Inhibition of cells growth by colorimetric (SRB) assay, LNCaP; conditions: for CC50: read-out: LC50 LN-caP
Summary of the method: as §1

K-562 = assay: Inhibition of cells growth by colorimetric (SRB) assay, K-562; conditions: for GI50: read-out: GI50 K-562
Summary of the method: as §1

IGROV-ET = assay: Inhibition of cells growth by colorimetric (SRB) assay, IGROV-ET
Summary of the method: as §1

HMEC1 = assay: Inhibition of cells growth by colorimetric (SRB) assay, HMEC1; conditions: for TGI H-MEC-1: in M (unit assumed); for CC50: read-out: LC50 H-MEC-1
Source text: The finality of these assays is to interrupt the growth of a “in vitro” tumor cell culture by means a continued exhibition of the cells to the sample to be testing.
This form of the assay employs 96 well cell culture microplates of 9 mm diameter (Faircloth, 1988; Mosmann, 1983). Most of the cell lines are obtained from American Type Culture Collection (ATCC) derived from different human cancer types.
Cells are maintained in RPMI 1640 10% FBS, supplemented with 0.1 g/l penicillin and 0.1 g/l streptomycin sulphate and then incubated at 37° C., 5% CO2 and 98% humidity. For the experiments, cells were harvested from subconfluent cultures using trypsin and resuspended in fresh medium before plating.
Cells are seeded in 96 well microtiter plates, at 5×10^3 cells per well in aliquots of 195 μl medium, and they are allowed to attach to the plate surface by growing in drug free medium for 18 hours. Afterward, samples are added in aliquots of 5 μl in a ranging from 10 to 10^−8 μg/ml, dissolved in DMSO/EtOH/PBS (0.5:0.5:99). After 48 hours exposure, the antitumor effect are measured by the SRB methodology: cells are fixed by adding 50 μl of cold 50% (wt/vol) trichloroacetic acid (TCA) and incubating for 60 minutes at 4° C. Plates are washed with deionized water and dried. One hundred μl of SRB solution (0.4% wt/vol in 1% acetic acid) is added to each microtiter well and incubated for 10 minutes at room temperature. Unbound SRB is removed by washing with 1% acetic acid. Plates are air dried and bound stain is solubilized with Tris buffer. Optical densities are read on a automated spectrophotometric plate reader at a single wavelength of 490 nm.
The values for mean +/−SD of data from triplicate wells are calculated. Some parameters for cellular responses can be calculated: GI=growth inhibition, TGI=total growth inhibition (cytostatic effect) and LC=cell killing (cytotoxic effect).

Cc1ccc2c(-c3ccnc(N)n3)c3ccnc(N)n3c2n1 [Compound 24]
TGI PANC-1 (PANC-1; SRB assay, 48 hours exposure): 2.06E−05 | GI50 (PANC-1; SRB assay, 48 hours exposure): 3880 nM | CC50 (PANC-1; read-out: LC50 PANC-1, SRB assay, 48 hours exposure): ≥ 34300 nM | TGI SK-BR-3 (SK-BR-3): 4.77E−06 | GI50 (SK-BR-3): 1040 nM | CC50 (SK-BR-3): 10400 nM | TGI SKOV-3 (SK-OV-3; SRB assay, 48 hours exposure): 1.00E−05 | GI50 (SK-OV-3; read-out: GI50 SKOV-3, SRB assay, 48 hours exposure): 1390 nM | CC50 (SK-OV-3; read-out: LC50 SKOV-3, SRB assay, 48 hours exposure): ≥ 34300 nM | TGI MEL-28 (SK-MEL-28; SRB assay, 48 hours exposure): 3.43E−06 | GI50 (SK-MEL-28; read-out: GI50 MEL-28, SRB assay, 48 hours exposure): 721 nM | CC50 (SK-MEL-28; read-out: LC50 MEL-28, SRB assay, 48 hours exposure): 12600 nM | TGI LOVO (LoVo; SRB assay, 48 hours exposure): 1.22E−06 | GI50 (LoVo; read-out: GI50 LOVO, SRB assay, 48 hours exposure): 325 nM | CC50 (LoVo; SRB assay, 48 hours exposure): > 34300 nM | TGI A-549 (A-549; SRB assay, 48 hours exposure): 6.87E−06 | GI50 (A-549; SRB assay, 48 hours exposure): 1380 nM | CC50 (A-549; read-out: LC50 A-549, SRB assay, 48 hours exposure): 17500 nM | TGI IGROV (IGROV-1; SRB assay, 48 hours exposure): 6.38E−06 | GI50 (IGROV-1; read-out: GI50 IGROV, SRB assay, 48 hours exposure): 995 nM | CC50 (IGROV-1; SRB assay, 48 hours exposure): 23000 nM | TGI LOVO-DOX (LoVo-Dox; SRB assay, 48 hours exposure): 3.43E−06 | GI50 (LoVo-Dox; read-out: GI50 LOVO-DOX, SRB assay, 48 hours exposure): 642 nM | CC50 (LoVo-Dox; read-out: LC50 LOVO-DOX, SRB assay, 48 hours exposure): ≥ 34300 nM | CC50 (DU-145; Homo sapiens, DU-145, 48 h, read-out: LC50 DU-145, SRB assay, 48 hours exposure): 15600 nM | TGI DU-145 (DU-145; SRB assay, 48 hours exposure): 1.91E−06 | GI50 (DU-145; SRB assay, 48 hours exposure): 831 nM | TGI HT-29 (HT-29; SRB assay, 48 hours exposure): 3.43E−05 | GI50 (HT-29; read-out: GI50 HT-29, SRB assay, 48 hours exposure): 16400 nM | CC50 (HT-29; read-out: LC50 HT-29, SRB assay, 48 hours exposure): ≥ 34300 nM | TGI LN-caP (LNCaP; SRB assay, 48 hours exposure): 7.24E−07 | GI50 (LNCaP; read-out: GI50 LN-caP, SRB assay, 48 hours exposure): 174 nM | CC50 (LNCaP; SRB assay, 48 hours exposure): ≥ 34300 nM | TGI K-562 (K-562; SRB assay, 48 hours exposure): 7.35E−06 | GI50 (K-562; SRB assay, 48 hours exposure): 1620 nM | CC50 (K-562; read-out: LC50 K-562, SRB assay, 48 hours exposure): 22200 nM | TGI IGROV-ET (IGROV-ET; SRB assay, 48 hours exposure): 7.11E−06 | GI50 (IGROV-ET; read-out: GI50 IGROV-ET, SRB assay, 48 hours exposure): 1010 nM | CC50 (IGROV-ET; read-out: LC50 IGROV-ET, SRB assay, 48 hours exposure): ≥ 34300 nM | TGI H-MEC-1 (HMEC1; SRB assay, 48 hours exposure): 7.86E−07 | GI50 (HMEC1; read-out: GI50 H-MEC-1, SRB assay, 48 hours exposure): 247 nM | CC50 (HMEC1; SRB assay, 48 hours exposure): 2670 nM

Cl.Nc1nccc(-c2c3cc4ccccc4nc3n3c(N)nccc23)n1 [Compound 42]
CC50 (PANC-1; Homo sapiens, PANC-1, 48 h, read-out: LC50 PANC-1, SRB assay, 48 hours exposure): 25000 nM | TGI PANC-1 (PANC-1; SRB assay, 48 hours exposure): 2.50E−05 | GI50 (PANC-1; SRB assay, 48 hours exposure): 8870 nM | TGI SK-BR-3 (SK-BR-3): 3.22E−07 | GI50 (SK-BR-3): 67.7 nM | CC50 (SK-BR-3): 1670 nM | GI50 (SK-OV-3; Homo sapiens, SK-OV-3, 48 h, read-out: GI50 SKOV-3, SRB assay, 48 hours exposure): 1080 nM | CC50 (SK-OV-3; Homo sapiens, SK-OV-3, 48 h, read-out: LC50 SKOV-3, SRB assay, 48 hours exposure): 21500 nM | TGI SKOV-3 (SK-OV-3; SRB assay, 48 hours exposure): 5.32E−06 | GI50 (SK-MEL-28; Homo sapiens, SK-MEL-28, 48 h, read-out: GI50 MEL-28, SRB assay, 48 hours exposure): 2560 nM | CC50 (SK-MEL-28; Homo sapiens, SK-MEL-28, 48 h, read-out: LC50 MEL-28, SRB assay, 48 hours exposure): 25000 nM | TGI MEL-28 (SK-MEL-28; SRB assay, 48 hours exposure): 2.50E−05 | GI50 (LoVo; Homo sapiens, LoVo, 48 h, read-out: GI50 LOVO, SRB assay, 48 hours exposure): 884 nM | TGI LOVO (LoVo; SRB assay, 48 hours exposure): 5.42E−06 | CC50 (LoVo; SRB assay, 48 hours exposure): 25000 nM | CC50 (A-549; Homo sapiens, A549, 48 h, read-out: LC50 A-549, SRB assay, 48 hours exposure): 14300 nM | TGI A-549 (A-549; SRB assay, 48 hours exposure): 2.26E−06 | GI50 (A-549; SRB assay, 48 hours exposure): 135 nM | GI50 (IGROV-1; Homo sapiens, IGROV-1, 48 h, read-out: GI50 IGROV, SRB assay, 48 hours exposure): 1560 nM | TGI IGROV (IGROV-1; SRB assay, 48 hours exposure): 5.15E−06 | CC50 (IGROV-1; SRB assay, 48 hours exposure): 13000 nM | GI50 (LoVo-Dox; Homo sapiens, 48 h, read-out: GI50 LOVO-DOX, SRB assay, 48 hours exposure): 954 nM | CC50 (LoVo-Dox; Homo sapiens, 48 h, read-out: LC50 LOVO-DOX, SRB assay, 48 hours exposure): 15500 nM | TGI LOVO-DOX (LoVo-Dox; SRB assay, 48 hours exposure): 3.62E−06 | TGI DU-145 (DU-145; SRB assay, 48 hours exposure): 6.10E−06 | GI50 (DU-145; SRB assay, 48 hours exposure): 1480 nM | CC50 (DU-145; read-out: LC50 DU-145, SRB assay, 48 hours exposure): 21100 nM | GI50 (HT-29; Homo sapiens, HT-29, 48 h, read-out: GI50 HT-29, SRB assay, 48 hours exposure): 1990 nM | CC50 (HT-29; Homo sapiens, HT-29, 48 h, read-out: LC50 HT-29, SRB assay, 48 hours exposure): 25000 nM | TGI HT-29 (HT-29; SRB assay, 48 hours exposure): 2.50E−05 | GI50 (LNCaP; Homo sapiens, LNCaP, 48 h, read-out: GI50 LN-caP, SRB assay, 48 hours exposure): 432 nM | TGI LN-caP (LNCaP; SRB assay, 48 hours exposure): 1.25E−06 | CC50 (LNCaP; SRB assay, 48 hours exposure): 5970 nM | CC50 (K-562; Homo sapiens, K562, 48 h, read-out: LC50 K-562, SRB assay, 48 hours exposure): 14600 nM | TGI K-562 (K-562; SRB assay, 48 hours exposure): 7.69E−06 | GI50 (K-562; SRB assay, 48 hours exposure): 4070 nM | GI50 (IGROV-ET; Homo sapiens, 48 h, read-out: GI50 IGROV-ET, SRB assay, 48 hours exposure): 1700 nM | CC50 (IGROV-ET; Homo sapiens, 48 h, read-out: LC50 IGROV-ET, SRB assay, 48 hours exposure): 15400 nM | TGI IGROV-ET (IGROV-ET; SRB assay, 48 hours exposure): 5.45E−06 | GI50 (HMEC1; Homo sapiens, HMEC-1, 48 h, read-out: GI50 H-MEC-1, SRB assay, 48 hours exposure): 114 nM | TGI H-MEC-1 (HMEC1; SRB assay, 48 hours exposure): 5.32E−07 | CC50 (HMEC1; SRB assay, 48 hours exposure): 1860 nM

From patent publication US7772241B2, “Variolin derivatives and their use as antitumor agents” (Pharma Mar S.A., priority 2001, dated 2010)
